Here are results for two compounds from ChEMBL document CHEMBL4177722, “Small molecule inhibitors of anthrax edema factor” (Bioorg Med Chem Lett, 2018).

Broadly, the CC50 is the concentration at which the toxic effect on the cells reaches its halfway point. In general, inhibition refers to the share of the control response that was lost under treatment.

Each structure is given as a SMILES string.

Series [1] addresses T1, Calmodulin-sensitive adenylate cyclase (Bacillus anthracis) (UniProt P40136).
T1 sequence (whole entry): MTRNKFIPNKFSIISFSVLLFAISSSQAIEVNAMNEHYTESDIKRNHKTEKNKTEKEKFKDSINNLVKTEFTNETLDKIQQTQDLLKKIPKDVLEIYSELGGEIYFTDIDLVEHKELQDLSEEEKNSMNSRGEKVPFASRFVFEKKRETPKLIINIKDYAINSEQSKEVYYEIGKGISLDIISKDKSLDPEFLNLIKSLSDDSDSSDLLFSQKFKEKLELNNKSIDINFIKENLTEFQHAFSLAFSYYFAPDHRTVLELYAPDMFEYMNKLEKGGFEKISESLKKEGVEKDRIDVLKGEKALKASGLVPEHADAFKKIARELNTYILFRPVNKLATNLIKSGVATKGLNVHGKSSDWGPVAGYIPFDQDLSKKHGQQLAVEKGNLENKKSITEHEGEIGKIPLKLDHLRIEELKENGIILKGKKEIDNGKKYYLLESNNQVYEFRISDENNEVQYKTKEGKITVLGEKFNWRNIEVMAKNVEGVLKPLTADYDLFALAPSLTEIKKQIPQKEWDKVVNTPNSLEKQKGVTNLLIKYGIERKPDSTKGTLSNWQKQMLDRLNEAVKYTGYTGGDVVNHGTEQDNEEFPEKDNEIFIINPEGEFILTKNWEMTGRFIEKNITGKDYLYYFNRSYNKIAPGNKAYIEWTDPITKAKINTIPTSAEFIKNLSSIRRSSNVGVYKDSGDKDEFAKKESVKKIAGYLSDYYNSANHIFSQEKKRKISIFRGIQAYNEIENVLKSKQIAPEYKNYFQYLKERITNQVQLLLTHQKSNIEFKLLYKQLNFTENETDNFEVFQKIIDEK
The series can be described thus: Inactivation of Bacillus anthracis edema factor assessed as Kinact/Ki ratio in presence of CaM incubated for 10 to 240 mins by EnzChek pyrophosphate assay.

Series [2] in a line: Cytotoxicity against mouse RAW264.7 cells assessed a reduction in cell viability incubated for 24 hrs in presence of 10% FBS by MTT assay. In kind it is cell-based. Conditions: RAW264.7 cells.
Series [3] has as its target RAC-alpha serine/threonine-protein kinase (Homo sapiens) (UniProt P31749). The series can be described thus: Inhibition of human AKT1 at 10 uM by ADP-Glo kinase assay. For orientation: ADP-Glo first removes unused ATP, then detects ADP through luciferase.
Series [4] deals with T2, Aurora kinase A (Homo sapiens) (UniProt O14965).
T2 sequence (whole entry): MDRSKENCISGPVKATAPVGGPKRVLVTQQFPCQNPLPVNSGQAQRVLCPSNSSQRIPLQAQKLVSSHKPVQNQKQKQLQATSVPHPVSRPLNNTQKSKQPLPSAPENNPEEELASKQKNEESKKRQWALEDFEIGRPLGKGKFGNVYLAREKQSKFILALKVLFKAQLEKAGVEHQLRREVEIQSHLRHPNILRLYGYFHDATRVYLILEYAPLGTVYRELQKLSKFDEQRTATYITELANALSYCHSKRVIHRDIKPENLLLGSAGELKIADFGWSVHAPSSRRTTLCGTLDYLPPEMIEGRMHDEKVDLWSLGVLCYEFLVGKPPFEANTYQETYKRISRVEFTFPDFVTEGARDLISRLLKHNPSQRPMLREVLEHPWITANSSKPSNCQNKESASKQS
The series is described as follows: Inhibition of human Aurora A at 10 uM by ADP-Glo kinase assay.

The target of series [5] is T3, Calcium/calmodulin-dependent protein kinase type IV (Homo sapiens) (UniProt Q16566).
T3 sequence (whole entry): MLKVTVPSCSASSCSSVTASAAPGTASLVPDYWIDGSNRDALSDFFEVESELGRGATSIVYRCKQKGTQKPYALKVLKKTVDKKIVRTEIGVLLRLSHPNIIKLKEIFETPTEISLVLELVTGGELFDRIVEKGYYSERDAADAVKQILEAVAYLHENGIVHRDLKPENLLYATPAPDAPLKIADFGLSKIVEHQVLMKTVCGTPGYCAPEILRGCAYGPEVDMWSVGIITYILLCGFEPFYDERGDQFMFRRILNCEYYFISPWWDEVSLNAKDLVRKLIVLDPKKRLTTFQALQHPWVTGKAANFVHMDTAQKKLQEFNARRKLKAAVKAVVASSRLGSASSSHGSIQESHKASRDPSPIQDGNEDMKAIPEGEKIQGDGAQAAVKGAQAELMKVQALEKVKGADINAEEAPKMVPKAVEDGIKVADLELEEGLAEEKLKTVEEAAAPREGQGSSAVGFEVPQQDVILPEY
The series is described as follows: Inhibition of human CAMK4 at 10 uM by ADP-Glo kinase assay.

For series [6], the target named is Casein kinase I isoform gamma-1 (Homo sapiens) (UniProt Q9HCP0). The series is described as follows: Inhibition of human CK1g1 at 10 uM by ADP-Glo kinase assay.
The target in series [7] is Death-associated protein kinase 1 (Homo sapiens) (UniProt P53355). The series is described as follows: Inhibition of human DAPK1 at 10 uM by ADP-Glo kinase assay.
The target of series [8] is T4, Inhibitor of nuclear factor kappa-B kinase subunit beta (Homo sapiens) (UniProt O14920).
T4 sequence (whole entry): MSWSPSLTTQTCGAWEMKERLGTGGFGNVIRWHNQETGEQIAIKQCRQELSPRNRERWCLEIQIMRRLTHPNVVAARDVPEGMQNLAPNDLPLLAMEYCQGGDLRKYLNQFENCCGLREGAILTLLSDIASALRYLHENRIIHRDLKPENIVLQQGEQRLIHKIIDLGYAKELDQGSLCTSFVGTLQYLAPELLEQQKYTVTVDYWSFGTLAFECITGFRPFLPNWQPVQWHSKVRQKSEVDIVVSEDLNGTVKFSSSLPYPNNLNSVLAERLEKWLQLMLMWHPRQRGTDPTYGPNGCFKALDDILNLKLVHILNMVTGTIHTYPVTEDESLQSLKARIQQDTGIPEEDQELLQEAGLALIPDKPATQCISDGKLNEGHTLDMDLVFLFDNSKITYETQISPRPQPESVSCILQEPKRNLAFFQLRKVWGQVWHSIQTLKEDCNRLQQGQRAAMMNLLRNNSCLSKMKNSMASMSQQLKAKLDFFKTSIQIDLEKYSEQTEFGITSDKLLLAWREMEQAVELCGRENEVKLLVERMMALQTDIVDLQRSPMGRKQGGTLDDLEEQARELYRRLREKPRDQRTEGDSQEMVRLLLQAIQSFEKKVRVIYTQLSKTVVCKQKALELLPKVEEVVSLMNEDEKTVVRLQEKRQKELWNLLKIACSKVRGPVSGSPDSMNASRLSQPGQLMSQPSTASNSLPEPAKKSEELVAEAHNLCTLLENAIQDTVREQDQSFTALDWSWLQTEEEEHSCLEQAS
The series is described as follows: Inhibition of human IKKbeta at 10 uM by ADP-Glo kinase assay.

Series [9] deals with Interleukin-1 receptor-associated kinase 1 (Homo sapiens) (UniProt P51617). The series can be described thus: Inhibition of human IRAK at 10 uM by ADP-Glo kinase assay.
Series [10] relates to RAW264.7. The series can be described thus: Cytotoxicity against mouse RAW264.7 cells assessed a reduction in cell viability incubated for 24 hrs in absence of 10% FBS by MTT assay. The format is cell-based. Conditions: raw264.7, 24 h. A general note: Formazan colour is commonly taken as a measure of viable cells.

Sequence of Death-associated protein kinase 1 (Homo sapiens) (P53355 whole entry, looked up): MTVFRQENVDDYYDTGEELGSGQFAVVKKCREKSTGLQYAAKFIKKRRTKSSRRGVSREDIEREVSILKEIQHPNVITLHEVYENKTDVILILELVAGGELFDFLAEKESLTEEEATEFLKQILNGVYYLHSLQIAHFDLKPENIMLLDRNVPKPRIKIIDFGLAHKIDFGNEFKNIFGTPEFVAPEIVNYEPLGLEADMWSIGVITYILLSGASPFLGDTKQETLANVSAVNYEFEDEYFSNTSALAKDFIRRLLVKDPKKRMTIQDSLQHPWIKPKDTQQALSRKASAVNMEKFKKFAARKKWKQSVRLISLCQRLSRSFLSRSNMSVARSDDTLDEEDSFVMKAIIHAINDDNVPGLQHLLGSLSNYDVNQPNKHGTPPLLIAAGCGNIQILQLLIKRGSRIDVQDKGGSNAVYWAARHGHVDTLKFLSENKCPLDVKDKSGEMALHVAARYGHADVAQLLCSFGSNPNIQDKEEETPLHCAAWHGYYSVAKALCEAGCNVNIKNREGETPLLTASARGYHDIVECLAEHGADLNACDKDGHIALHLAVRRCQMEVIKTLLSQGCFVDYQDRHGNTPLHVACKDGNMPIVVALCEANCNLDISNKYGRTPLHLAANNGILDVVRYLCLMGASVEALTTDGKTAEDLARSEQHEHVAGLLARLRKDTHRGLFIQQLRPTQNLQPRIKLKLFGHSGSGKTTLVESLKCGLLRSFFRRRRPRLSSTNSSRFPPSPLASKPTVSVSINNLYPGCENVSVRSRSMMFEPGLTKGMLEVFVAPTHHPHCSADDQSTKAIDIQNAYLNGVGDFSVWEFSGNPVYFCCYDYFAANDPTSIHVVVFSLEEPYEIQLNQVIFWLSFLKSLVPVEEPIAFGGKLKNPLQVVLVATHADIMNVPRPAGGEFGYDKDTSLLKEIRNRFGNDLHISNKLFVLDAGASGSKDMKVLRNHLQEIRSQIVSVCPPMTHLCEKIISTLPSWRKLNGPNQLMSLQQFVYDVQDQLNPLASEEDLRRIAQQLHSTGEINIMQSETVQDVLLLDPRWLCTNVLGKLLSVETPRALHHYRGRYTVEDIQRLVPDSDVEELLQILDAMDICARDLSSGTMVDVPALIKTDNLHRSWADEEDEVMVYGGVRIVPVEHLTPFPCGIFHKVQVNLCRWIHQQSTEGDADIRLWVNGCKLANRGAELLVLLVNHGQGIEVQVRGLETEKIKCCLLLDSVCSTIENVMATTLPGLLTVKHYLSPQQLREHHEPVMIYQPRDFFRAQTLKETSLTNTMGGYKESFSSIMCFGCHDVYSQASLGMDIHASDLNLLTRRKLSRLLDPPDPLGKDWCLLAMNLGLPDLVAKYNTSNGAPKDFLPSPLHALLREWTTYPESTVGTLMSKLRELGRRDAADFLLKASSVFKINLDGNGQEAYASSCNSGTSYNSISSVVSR
Sequence of RAC-alpha serine/threonine-protein kinase (Homo sapiens) (P31749 whole entry): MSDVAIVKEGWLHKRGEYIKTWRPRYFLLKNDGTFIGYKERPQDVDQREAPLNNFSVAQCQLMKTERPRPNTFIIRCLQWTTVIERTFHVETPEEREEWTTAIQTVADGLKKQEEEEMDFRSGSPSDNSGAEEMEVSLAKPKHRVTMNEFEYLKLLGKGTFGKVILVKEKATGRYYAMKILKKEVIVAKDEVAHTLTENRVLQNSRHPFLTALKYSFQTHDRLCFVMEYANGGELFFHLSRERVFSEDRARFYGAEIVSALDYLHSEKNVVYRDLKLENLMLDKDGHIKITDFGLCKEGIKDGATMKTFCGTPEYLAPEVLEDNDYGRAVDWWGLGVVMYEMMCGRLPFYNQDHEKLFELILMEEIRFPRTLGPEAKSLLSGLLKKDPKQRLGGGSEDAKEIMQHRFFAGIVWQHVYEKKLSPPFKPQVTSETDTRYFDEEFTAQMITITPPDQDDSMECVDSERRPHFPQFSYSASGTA
Sequence of Casein kinase I isoform gamma-1 (Homo sapiens) (Q9HCP0 whole entry, looked up, canonical isoform): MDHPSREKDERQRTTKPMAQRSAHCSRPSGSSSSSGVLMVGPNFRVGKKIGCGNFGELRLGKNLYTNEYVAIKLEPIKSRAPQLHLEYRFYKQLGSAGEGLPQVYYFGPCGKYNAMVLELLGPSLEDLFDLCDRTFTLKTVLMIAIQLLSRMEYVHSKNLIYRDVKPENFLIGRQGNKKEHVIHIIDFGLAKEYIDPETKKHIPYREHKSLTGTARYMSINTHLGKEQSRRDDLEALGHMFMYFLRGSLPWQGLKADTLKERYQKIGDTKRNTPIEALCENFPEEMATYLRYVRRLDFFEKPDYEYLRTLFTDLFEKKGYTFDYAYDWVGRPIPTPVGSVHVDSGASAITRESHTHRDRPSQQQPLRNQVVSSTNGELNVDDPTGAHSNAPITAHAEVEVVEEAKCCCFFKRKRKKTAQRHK
Sequence of Interleukin-1 receptor-associated kinase 1 (Homo sapiens) (P51617 whole entry, looked up): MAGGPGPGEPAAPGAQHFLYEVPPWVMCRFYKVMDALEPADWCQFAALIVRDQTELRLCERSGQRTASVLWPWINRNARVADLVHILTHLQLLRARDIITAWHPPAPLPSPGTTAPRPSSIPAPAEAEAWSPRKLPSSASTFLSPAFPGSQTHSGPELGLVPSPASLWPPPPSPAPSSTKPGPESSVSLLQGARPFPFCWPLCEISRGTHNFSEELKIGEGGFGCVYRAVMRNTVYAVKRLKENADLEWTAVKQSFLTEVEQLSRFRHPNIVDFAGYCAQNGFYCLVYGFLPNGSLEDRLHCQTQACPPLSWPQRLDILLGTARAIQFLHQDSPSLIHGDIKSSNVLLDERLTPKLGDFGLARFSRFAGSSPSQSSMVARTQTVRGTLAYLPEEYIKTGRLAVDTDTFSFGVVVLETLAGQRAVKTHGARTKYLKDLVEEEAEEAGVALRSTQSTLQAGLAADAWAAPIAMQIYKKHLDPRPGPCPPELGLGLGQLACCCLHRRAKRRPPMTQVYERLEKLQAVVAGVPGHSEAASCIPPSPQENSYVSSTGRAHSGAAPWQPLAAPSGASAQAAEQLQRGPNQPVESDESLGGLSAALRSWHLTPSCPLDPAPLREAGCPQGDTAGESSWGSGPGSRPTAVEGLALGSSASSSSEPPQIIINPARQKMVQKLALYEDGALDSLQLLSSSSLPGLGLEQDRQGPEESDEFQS

In the case of `Nc1ncnc2c1ccn2C1CCN(C(=O)c2ccc(S(=O)(=O)F)cc2)CC1`, the Ratio in series [1] amounted to 14200. Besides, the cytotoxic concentration (CC50) at 24 h in series [2] was over 100 µM. Moreover, the inhibition was 20% in series [3]; 39% in series [4]; 7% in [5]; 23% in series [6]; 4% in series [7]; 0% in series [8]. For the same compound, the inhibition in series [9] was 10%. In addition, in series [10], the Activity entry is reported as “Non-Toxic”.

Consider `Cc1nc(N)c2ccn(C3CCN(C(=O)c4ccc(S(=O)(=O)F)cc4)CC3)c2n1`, for which the Ratio in series [1] was determined as 3140. For the same compound, the CC50 at 24 h in series [2] was over 100 µM. Further, the inhibition in series [3] was found to be 24%; in series [4] it was 47%; in [5], 27%; in series [6], 16%; in series [7], 13%; in series [8], 0%. The inhibition in series [9] is 0%. For the same compound, the Activity entry in [10] is listed as “Non-Toxic”.
